Tests used:
[1] = target: T1, Proteasome subunit beta type-1 (Homo sapiens, UniProt P20618); experiment: Inhibition of PGPH activity of human 20S proteasome using (Z)-LLE-bNA as substrate by fluorometric method
T1 sequence (P20618 whole entry): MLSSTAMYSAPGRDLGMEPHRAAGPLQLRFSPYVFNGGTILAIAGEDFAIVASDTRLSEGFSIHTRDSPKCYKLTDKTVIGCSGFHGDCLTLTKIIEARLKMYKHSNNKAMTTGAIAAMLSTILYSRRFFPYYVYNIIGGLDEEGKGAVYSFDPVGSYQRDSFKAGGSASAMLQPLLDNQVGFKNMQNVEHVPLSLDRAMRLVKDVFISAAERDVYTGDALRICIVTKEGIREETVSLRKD

[2] = target: Proteasome subunit beta type-2 (Homo sapiens, UniProt P49721); experiment: Inhibition of trypsin-like activity of human 20S proteasome using Bz-VGR-AMC as substrate by fluorometric method
Proteasome subunit beta type-2, sequence (P49721 whole entry): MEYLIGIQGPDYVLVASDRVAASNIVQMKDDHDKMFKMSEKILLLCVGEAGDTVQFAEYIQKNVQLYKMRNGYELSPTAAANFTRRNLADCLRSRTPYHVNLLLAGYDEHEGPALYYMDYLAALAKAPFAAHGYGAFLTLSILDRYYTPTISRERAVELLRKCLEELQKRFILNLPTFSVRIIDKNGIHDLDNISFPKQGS

With CC[C@H](C)[C@H](NC(=S)Nc1cccc([N+](=O)[O-])c1)C(=O)N[C@H](Cc1ccccc1)C(=O)Nc1cccc(C(F)(F)F)c1 as the compound, how does the IC50 [1] read?
The IC50 was 35 µM.

For CC[C@H](C)[C@H](/N=C(/Nc1cccc(C(F)(F)F)c1)SC)C(=O)N[C@H](Cc1ccccc1)C(=O)Nc1cccc(C(F)(F)F)c1, which IC50 [1] is on record?
The IC50 was 22.6 µM.

CC[C@H](C)[C@H](NC(=S)Nc1ccc(C(F)(F)F)cc1)C(=O)N[C@H](Cc1ccccc1)C(=O)Nc1cccc(Br)c1 was tested. Which IC50 [1] did it give?
The IC50 was 22.7 µM.

And the IC50 [2]?
The IC50 was > 50 µM.

Reference: BindingDB's records for doi:10.1016/j.ejmech.2016.11.024 (Guangxi Normal University, 2017)
